The text below walks through data of ChEMBL document CHEMBL1131739, “Synthesis of 25-aminosterols, new antifungal agents” (1999).

Values after ≈ are worked out from the molar mass of the structure shown.

In general, MIC refers to the lowest concentration found to suppress growth. Read a low MIC as inhibition by little substance.

The test system of this assay is Candida albicans. Description: In vitro antifungal activity against candida albicans (IP 1180.79). The class given is functional.

Regarding `C[C@H](CCCC(C)(C)N)C1CC[C@@]2(C)C3=C(CC[C@]12C)[C@@]1(C)CC[C@H](O)C(C)(C)C1CC3` (some centres not stated), the lowest concentration to inhibit growth (MIC) was 60 µM (≈ 26.6 µg/mL).

`C[C@H](CCCC(C)(C)N)C1CCC2C3CC=C4C[C@@H](O)CC[C@]4(C)C3CC[C@@]21C` (some centres not stated) showed a minimal inhibitory concentration (MIC) of 4 µM (≈ 1.61 µg/mL).
